Read-outs that look alike come from different tables or passages of the source.
Key:
[1] = HepG2 cell viability by MTS; format: cell-based; conditions: human; 20 μM, HepG2 cells, 3 days, DMEM without FBS, MTS; read-out: Average Viability (% Inhibition, n = 3)
Procedure: For viability measurements, HepG2 cells were seeded at 5,000 cells per well in 96-well plates in DMEM supplemented with 10% FBS. After 1 day in culture, cells were treated with compounds (20 μM & 5 μM) for 3 days in DMEM without FBS. Viability was measured by MTS. Treatment with compounds (20 μM & 5 μM) was carried out in medium without FBS, and viability was measured by MTS. […]

SREBP2 = SREBP2 cleavage in HEPG2 cells (Western blot normalized to actin); format: cell-based; conditions: Homo sapiens, read-out: Average SREBP2 cleavage (% Inhibition, n = 3)
Procedure: Average SREBP2 cleavage in HEPG2 cells was measured in the presence of compounds disclosed in Table 1. HepG2 cells were seeded at 500,000 cells per well in 6-well plates in DMEM supplemented with 10% FBS. After 2 days, cells were treated with compounds (20 μM) for 1 day in DMEM without FBS. Western blots were normalized with respect to actin.
The results are shown in Table 3 as percent inhibition@20 μM, and in Table 4 as percent inhibition@5 μM.

[2] = 24 h, 20 μM, HepG2 cells, 1 day, DMEM without FBS

SMILES | cytotoxicity at 3 days, 20 μM [1] | inhibition at 20 µM (SREBP2; [2]) | inhibition at 20 µM (SREBP2; HepG2, 24 h) | inhibition at 5 µM (SREBP2; 5 μM, HepG2 cells)
CCCc1cc(-c2nc(-c3ccc(NS(=O)(=O)C(F)(F)F)cc3)cs2)ccn1 [Compound 1, 1,1,1-trifluoro-N-(4-(2-(2-propylpyridin-4-yl)thiazol-4-yl)phenyl)methanesulfonamide] | 92.1% | 73.7% | – | –
CCCc1cc(-c2nc(-c3cccc(NS(=O)(=O)C(F)(F)F)c3)cs2)ccn1 [Compound 2, 1,1,1-trifluoro-N-(3-(2-(2-propylpyridin-4-yl)thiazol-4-yl)phenyl)methanesulfonamide] | 80.5% | – | 73% | –
CCCc1cc(-c2nc(-c3ccc(NS(=O)(=O)C(F)(F)F)cc3Cl)cs2)ccn1 [Compound 4, N-(3-chloro-4-(2-(2-propylpyridin-4-yl)thiazol-4-yl)phenyl)-1,1,1-trifluoromethanesulfonamide] | 94.4% | – | 96.1% | –
COc1cc(-c2csc(-c3ccnc(CC(C)C)c3)n2)ccc1NS(=O)(=O)C(F)(F)F [Compound 57, 1,1,1-trifluoro-N-(2-methoxy-4-{2-[2-(2-methylpropyl)pyridin-4-yl]-1,3-thiazol-4-yl}phenyl)methanesulfonamide] | 56.4% | 46.9% | – | –
CCCc1cc(-c2nc(-c3ccc(NS(=O)(=O)C(F)(F)F)c(OC)c3)cs2)ccn1 [Compound 58, 1,1,1-trifluoro-N-{2-methoxy-4-[2-(2-propylpyridin-4-yl)-1,3-thiazol-4-yl]phenyl}methanesulfonamide] | 67.9% | 29.4% | – | –
COc1cc(-c2csc(-c3ccnc(C(C)(C)C)c3)n2)ccc1NS(=O)(=O)C(F)(F)F [Compound 59, N-(4-(2-(2-tert-butylpyridin-4-yl)thiazol-4-yl)-2-methoxyphenyl)-1,1,1-trifluoromethanesulfonamide] | 99.8% | 60.6% | – | –
Nc1cc(-c2nc(-c3ccc(NS(=O)(=O)C(F)(F)F)cc3Cl)cs2)ccn1 [Compound 61, N-{4-[2-(2-aminopyridin-4-yl)-1,3-thiazol-4-yl]-3-chlorophenyl}-1,1,1-trifluoromethanesulfonamide] | 43% | 2% | – | –
CS(=O)(=O)Nc1cc(-c2nc(-c3ccc(NS(=O)(=O)C(F)(F)F)cc3Cl)cs2)ccn1 [Compound 62, N-{3-chloro-4-[2-(2-methanesulfonamidopyridin-4-yl)-1,3-thiazol-4-yl]phenyl}-1,1,1-trifluoromethanesulfonamide] | 0% | 0% | – | –
CCCc1cc(-c2nc(-c3ccc(NS(=O)(=O)C(F)(F)F)c(O)c3)cs2)ccn1 [Compound 63, 1,1,1-trifluoro-N-(2-hydroxy-4-(2-(2-propylpyridin-4-yl)thiazol-4-yl)phenyl)methanesulfonamide] | 47% | 39% | – | –
O=S(=O)(Nc1ccc(-c2csc(-c3ccnc(NS(=O)(=O)C(F)(F)F)c3)n2)c(Cl)c1)C(F)(F)F [Compound 66, N-{3-chloro-4-[2-(2-trifluoromethanesulfonamidopyridin-4-yl)-1,3-thiazol-4-yl]phenyl}-1,1,1-trifluoromethanesulfonamide] | 11% | 0% | – | –
O=C(c1ccc(-c2nc(-c3ccc(NS(=O)(=O)C(F)(F)F)cc3Cl)cs2)cc1)N1CCCCC1 [Compound 67, N-(3-chloro-4-{2-[4-(piperidine-1-carbonyl)phenyl]-1,3-thiazol-4-yl}phenyl)-1,1,1-trifluoromethanesulfonamide] | 20% | 3% | – | –
O=S(=O)(Nc1ccc(-c2csc(-c3c(F)cnc4[nH]ccc34)n2)c(Cl)c1)C(F)(F)F [Compound 89, N-[3-chloro-4-(2-{5-fluoro-1H-pyrrolo[2,3-b]pyridin-4-yl}-1,3-thiazol-4-yl)phenyl]-1,1,1-trifluoromethanesulfonamide] | – | – | – | 53%

From patent publication US9670172B2, “Heterocyclic compounds and methods of use” (Medivation Technologies, Inc., priority 2014, dated 2017)
